Results on two molecules are retold here after patent publication US6995187B1, “Peripheral cannabinoid receptor (CB2) selective ligands” (University of Connecticut, priority 1999, dated 2006).

The structures appear in SMILES notation.

Experiment [1] relates to paw-withdrawal latency to radiant heat in male Sprague-Dawley rats. The experiment in a line: Cannabinoid mediated antinociception: paw-withdrawal latency to a thermal nociceptive stimulus (Hargreaves method). Type of experiment: in vivo. The following applies: rat, subcutaneous injection in plantar surface of hindpaw, in DMSO, 50 μl; FIGS. 1–13. The method, then: Cannabinoid Mediated Antinociception.
Method. Male Sprague-Dawley rats (Harlan; Indianapolis, Ind.) 200–300 grams at time of testing, were maintained in a climate-controlled room on a 12-h light/dark cycle (lights on at 06:00 h) and food and water were available ad libitum. All of the testing was performed in accordance with the policies and recommendations of the International Association for the Study of Pain (IASP) and the National Institutes of Health (NIH) guidelines for the handling and use of laboratory animals and received approval from the Institutional Animal Care and Use Committee (IACUC) of the University of Arizona.
All drugs were dissolved in dimethyl sulfoxide (DMSO) and were injected subcutaneously in the plantar surface of the hindpaw in a total volume of 50 μl. DMSO given in hindpaw at this volume had no effect. The method of Hargreaves, K.; Dubner, R.; Brown, F.; Flores, C.; and Joris, J., A New Sensitive Method for Measuring Thermal Nociception in Cutaneous Hyperalgesia. […] Paw-withdrawal latency was determined by a photocell that halted both lamp and timer when the paw was withdrawn. The latency to withdrawal of the paw from the radiant heat source was determined both before and after drug or vehicle administration. […]

Experiment [2] has as its target T1, CB2 receptor (Mus musculus, UniProt P47936).
T1 construct: membranes were prepared from frozen mouse spleen; from tissue; host or cells: mouse spleen
The experiment in a line: CB2 receptor binding assay ([3H] CP-55,940 displacement, mouse spleen membranes). The following applies: 0.8 nM [3H] CP-55,940, read-out: CB2 affinity. As for the experimental part:
(§1) As used herein, “binding affinity” is represented by the IC50 value which is the concentration of an analog required to occupy the 50% of the total number (Bmax) of the receptors. The lower the IC50 value, the higher the binding affinity. […] The binding affinities (Ki) are expressed in nanomoles (nM).
(§2) Membranes, previously frozen at −80° C., were thawed on ice. To the stirred suspension was added three volumes of TME (25 mM Tris-HCl buffer, 5 mM MgCl2 and 1 mM EDTA) at a pH 7.4. The suspension was incubated at 4° C. for 30 min. At the end of the incubation, the membranes were pelleted and washed three times with TME.
The treated membranes were subsequently used in the binding assay described below. Approximately 30 μg of membranes were incubated in silanized 96-well microtiter plate with TME containing 0.1% essentially fatty acid-free bovine serum albumin (BSA), 0.8 nM [^3H] […] Radioactivity was detected using MicroScint 20 scintillation cocktail added directly to the dried filterplates, and the filterplates were counted using a Packard Instruments Top-Count. Nonspecific binding was assessed using 100 nM CP-55,940. […] CP-55,940, determined using buffer and 100 nM CP-55,940. The normalized data was analyzed using a 4-parameter nonlinear logistic equation to yield IC50 values. […]

Experiment [3] deals with T2, CB1 receptor (Rattus norvegicus, UniProt P20272).
T2 construct: membranes were prepared from rat forebrain membranes; from tissue; host or cells: rat forebrain
The experiment in a line: CB1 receptor binding assay ([3H] CP-55,940 displacement, rat forebrain membranes). The following applies: CB2 (mouse spleen) versus CB1 (rat forebrain) binding affinity. The method, then: as §1
The above articles are incorporated by reference herein.
as §2
The treated membranes were subsequently used in the binding assay described below. Approximately 30 μg of membranes were incubated in silanized 96-well microtiter plate with TME containing 0.1% essentially fatty acid-free bovine serum albumin (BSA), 0.8 nM [^3H] […] Radioactivity was detected using MicroScint 20 scintillation cocktail added directly to the dried filterplates, and the filterplates were counted using a Packard Instruments Top-Count. Nonspecific binding was assessed using 100 nM CP-55,940. […] CP-55,940, determined using buffer and 100 nM CP-55,940. The normalized data was analyzed using a 4-parameter nonlinear logistic equation to yield IC50 values.

T1 sequence (P47936 whole entry): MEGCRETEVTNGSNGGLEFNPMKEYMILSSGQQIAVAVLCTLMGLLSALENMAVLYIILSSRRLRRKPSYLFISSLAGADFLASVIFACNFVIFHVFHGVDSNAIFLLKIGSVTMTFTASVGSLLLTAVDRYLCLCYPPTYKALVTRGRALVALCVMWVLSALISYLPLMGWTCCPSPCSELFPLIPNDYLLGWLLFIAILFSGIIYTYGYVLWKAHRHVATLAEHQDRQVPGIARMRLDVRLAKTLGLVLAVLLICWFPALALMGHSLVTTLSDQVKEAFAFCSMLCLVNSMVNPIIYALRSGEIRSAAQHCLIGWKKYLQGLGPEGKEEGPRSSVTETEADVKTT
T2 sequence (P20272 whole entry): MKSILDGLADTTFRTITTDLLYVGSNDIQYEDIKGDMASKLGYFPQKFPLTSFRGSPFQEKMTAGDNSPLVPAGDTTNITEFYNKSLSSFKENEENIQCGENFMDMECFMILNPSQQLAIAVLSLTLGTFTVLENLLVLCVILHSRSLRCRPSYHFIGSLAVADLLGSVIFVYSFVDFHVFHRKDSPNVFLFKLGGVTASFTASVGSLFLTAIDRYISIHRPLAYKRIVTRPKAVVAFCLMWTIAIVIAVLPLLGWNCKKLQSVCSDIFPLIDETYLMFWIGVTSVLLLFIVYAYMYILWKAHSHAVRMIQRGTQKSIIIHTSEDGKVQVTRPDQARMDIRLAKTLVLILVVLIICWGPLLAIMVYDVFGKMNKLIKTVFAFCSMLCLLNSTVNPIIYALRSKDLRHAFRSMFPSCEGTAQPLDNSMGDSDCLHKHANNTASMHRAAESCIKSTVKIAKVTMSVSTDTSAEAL

As to `CCCCCCC(C)(C)c1cc(O)c2c(c1)oc(=O)c1ccc(O)cc12` [AM1714, 3-(1,1-Dimethylheptyl)-1,9-dihydroxy-6H-dibenzo[b,d]pyran-6-one], the “physiological effects in test animals including analgesia” value in experiment [1] was “produced notable physiological effects in test animals including analgesia”.

On to `CCCCCCC(C)(C)c1cc(O)c2c(c1)oc(=O)c1ccc(OC)cc12` [AM1710, 3-(1,1-Dimethylheptyl)-1-hydroxy-9-methoxy-6H-dibenzo[b,d]pyran-6-one], for which the Ki in experiment [2] amounted to 0.49 nM. Besides, the “CB2 selectivity over CB1” value in experiment [3] was around 750 fold.
